Tests used:
Assay type in all cases: in vivo, Rats (Slc: Wistar)
IL-6 = assay: Hypercytokinemia: plasma IL-6 by ELISA after LPS administration; conditions: rats, LPS 20 mg/kg i.v.; 1 or 3 mg/kg s.c.; six hours after LPS; FIG. 1; #p <0.1
Experimental: (§1) Rats (Slc: Wistar, male, 10 weeks old, n=7) were anesthetized by halothane. Subsequently, LPS (E. coli, 055: B5) (20 mg/2 ml/kg) was administered to each rat through the femoral vein. Immediately after administration, compound A was subcutaneously administered to each rats at a dose of 1 or 3 mg/kg. Six hours after administration of LPS, blood was collected from the abdominal aorta in the presence of citric acid, and plasma IL-6 was measured by ELISA.

[1] = test system: liver function parameters (GOT, GPT, LDH, and T-BIL); assay: Liver disease: liver function parameters (GOT, GPT, LDH, T-BIL) after LPS administration; conditions: six hours after LPS; for TBIL / GOT / GPT / LDH: rats, LPS 20 mg/kg i.v., Mean ± S.E. (n = 7); for TBIL: control 0.46 ± 0.15; for GOT: control 3404 ± 406; for GPT: control 3716 ± 496; for LDH: control 23847 ± 3225
Experimental: as §1, with “each rat” for “each rats”, “of 0.3, 1,” for “of 1”, “after LPS administration,” for “after administration of LPS,”, “and the blood” for “and plasma IL-6”, “was collected to measurement of liver function parameters (GOT, GPT, LDH, and T-BIL).” for “was measured by ELISA.”

[2] = test system: LPS intravenous administration shock model; assay: LPS intravenous administration shock model, mortality; conditions: for Mortality in terms of percentage(%) / Mortality: rats, LPS 20 mg/kg i.v., 24 hours after LPS; for Mortality in terms of percentage(%): control 100%; for Mortality: dead/total
Experimental: Rats (Slc: Wistar, male, 10 weeks old, n=15) were anesthetized by halothane. Subsequently, lipopolysaccharide (LPS) (E. coli, 055: B5) (20 mg/2 ml/kg) was administered to each rat through the femoral vein. Immediately after administration, (2S)-2-[4-([(3S)-1-acetimidoyl-3-pyrrolidinyl]oxy)phenyl]-3-(7-amidino-2-naphthyl)propionic acid hydrochloride pentahydrate (hereinafter referred to as “Compound A”) was subcutaneously administered to each rat at a dose of 0.3, 1, or 3 mg/kg. The mortality for the rats was observed 24 hours after the administration of LPS.

CC(=N)N1CC[C@H](Oc2ccc([C@H](Cc3ccc4ccc(C(=N)N)cc4c3)C(=O)O)cc2)C1.Cl.O.O.O.O.O [Compound A, (2S)-2-[4-([(3S)-1-acetimidoyl-3-pyrrolidinyl]oxy)phenyl]-3-(7-amidino-2-naphthyl)propionic acid hydrochloride pentahydrate]
Concentration of plasma IL-6 (in words) (IL-6): dose-dependently suppressed the increase in concentration of IL-6
Effect on liver function parameters (in words) ([1]; 0.3, 1, 3 mg/kg s.c.): dose-dependently suppressed the increase in each liver function parameter
TBIL ([1]; 0.3 mg/kg s.c.): 0.48 ± 0.22 mg/dL
GOT ([1]; 0.3 mg/kg s.c.): 1939 ± 442 IU/L
GPT ([1]; 0.3 mg/kg s.c.): 1986 ± 467 IU/L
LDH ([1]; 0.3 mg/kg s.c.): 11560 ± 2983 IU/L
TBIL ([1]; 1 mg/kg s.c.): 0.20 ± 0.10 mg/dL
GOT ([1]; 1 mg/kg s.c.): 1183 ± 281 IU/L
GPT ([1]; 1 mg/kg s.c.): 1216 ± 352 IU/L
LDH ([1]; 1 mg/kg s.c.): 6297 ± 2291 IU/L
TBIL ([1]; 3 mg/kg s.c.): 0.10 ± 0.01 mg/dL
GOT ([1]; 3 mg/kg s.c.): 364 ± 42 IU/L
GPT ([1]; 3 mg/kg s.c.): 189 ± 22 IU/L
LDH ([1]; 3 mg/kg s.c.): 972 ± 186 IU/L
Effect on mortality for rats (in words) ([2]; 0.3, 1, 3 mg/kg s.c., χ2 test p<0.001): dose-dependently decreases the mortality for rats
Mortality in terms of percentage(%) ([2]; 0.3 mg/kg s.c.): 80%
Mortality ([2]; 0.3 mg/kg s.c.): 12/15
Mortality in terms of percentage(%) ([2]; 1 mg/kg s.c.): 40%
Mortality ([2]; 1 mg/kg s.c.): 6/15
Mortality in terms of percentage(%) ([2]; 3 mg/kg s.c.): 7%
Mortality ([2]; 3 mg/kg s.c.): 1/15
